Values after ≈ are worked out from the molar mass of the structure shown.
The compounds below were run on Plasmodium falciparum (assay: Antimalarial activity against blood-stage Plasmodium falciparum 3D7 after 48 hr by Giemsa staining method). Conditions: 3D7, 48 h.
Assay type: functional, organism-based

For `COc1ccc(/C=C/C(=O)c2ccc(N3CCOCC3)cc2)cc1`, which IC50 is on record?
Its IC50 is 7.9 µg/mL (≈ 24.4 µM).

For `COc1cc(/C=C/C(=O)c2ccc(-n3cccc3)cc2)cc(OC)c1OC`, which IC50 is on record?
Its IC50 is 2.03 µg/mL (≈ 5.59 µM).

`COc1ccc(/C=C/C(=O)c2ccc(N3CCCC3)cc2)cc1` was tested. Which IC50 did it give?
The IC50 was 6.3 µg/mL (≈ 20.5 µM).

How did the IC50 turn out when `COc1ccc(/C=C/C(=O)c2ccc(-n3cncn3)cc2)cc1` was run?
Its IC50 is 4.56 µg/mL (≈ 14.9 µM).

For `COc1cc(/C=C/C(=O)c2ccc(N3CCCC3)cc2)cc(OC)c1`, which IC50 is on record?
The IC50 was 8.43 µg/mL (≈ 25 µM).

`COc1ccc(/C=C/C(=O)c2ccc(-n3cccc3)cc2)cc1` was tested. Which IC50 did it give?
The IC50 was 1.61 µg/mL (≈ 5.31 µM).

`O=C(/C=C/c1cc2ccccc2nc1Cl)c1ccc(N2CCOCC2)cc1` was tested. Which IC50 did it give?
The IC50 was 17 µg/mL (≈ 45 µM).

`COc1ccc(/C=C/C(=O)c2ccc(N3CCCCC3)cc2)cc1OC` was tested. Which IC50 did it give?
Its IC50 is 3.13 µg/mL (≈ 8.91 µM).

`COc1cc(/C=C/C(=O)c2ccc(-n3ccnc3)cc2)cc(OC)c1OC` was tested. Which IC50 did it give?
Its IC50 is 2.48 µg/mL (≈ 6.81 µM).

`COc1cc(/C=C/C(=O)c2ccc(N3CCNCC3)cc2)cc(OC)c1OC` was tested. Which IC50 did it give?
Its IC50 is 9 µg/mL (≈ 23.5 µM).

For `COc1cc(/C=C/C(=O)c2ccc(N3CCCC3)cc2)cc(OC)c1OC`, which IC50 is on record?
Its IC50 is 13 µg/mL (≈ 35.4 µM).

Reference: ChEMBL document CHEMBL3046891, “Potent antimalarial activity of newly synthesized substituted chalcone analogs in vitro” (Med Chem Res, 2009)
